Source: patent US7906522B2, “2-aminoquinazoline derivatives” (Kyowa Hakko Kirin Co., Ltd, priority 2005, dated 2011)

Target: T1, Activated human p38α (Homo sapiens, UniProt Q16539)
T1 construct: purchased Upstate Biotechnology Inc. 14-251
Experiment: p38MAP kinase inhibition test
Type: biochemical
Conditions: at a concentration of 1 μmol/L; substrate myelin basic protein, ATP 20 μmol/L, [γ-32P]ATP; read-out: enzyme inhibitory activity
Outline: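 Radiometric kinase assay with myelin basic protein (20 μg/assay) as substrate, 20 μmol/L ATP plus [γ-32P]ATP, MOPS pH 7.2 with MgCl2 18.75 mmol/L. Reaction run 15 min at 30° C., stopped with phosphoric acid; 32P-MBP captured on phosphocellulose and counted by scintillation.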

T1 sequence (Q16539 whole entry): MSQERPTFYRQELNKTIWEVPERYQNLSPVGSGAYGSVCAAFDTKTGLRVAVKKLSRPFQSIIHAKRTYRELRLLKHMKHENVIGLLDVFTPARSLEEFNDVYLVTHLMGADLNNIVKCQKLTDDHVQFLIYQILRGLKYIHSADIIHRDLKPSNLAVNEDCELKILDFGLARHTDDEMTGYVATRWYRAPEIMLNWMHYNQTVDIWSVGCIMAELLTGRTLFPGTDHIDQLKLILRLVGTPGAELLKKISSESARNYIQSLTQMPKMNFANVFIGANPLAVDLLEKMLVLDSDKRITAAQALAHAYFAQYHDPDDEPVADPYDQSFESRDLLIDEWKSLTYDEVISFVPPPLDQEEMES

`COc1cc2nc(NC(C)C)ncc2cc1-c1cccc(O)c1` [Compound 196, 6-(3-Hydroxyphenyl)-2-isopropylamino-7-methoxyquinazoline] gave an inhibition at 1 µM of no less than 50%.

Compound `COc1cc2nc(NC(C)C)ncc2cc1-c1cccc(C=O)c1` [Compound 197, 6-(3-Formylphenyl)-2-isopropylamino-7-methoxyquinazoline] has an inhibition at 1 µM of no less than 50%.

With `COc1cc2nc(NC(C)C)ncc2cc1-c1cccc(C(C)=O)c1` [Compound 199, 6-(3-Acetylphenyl)-2-isopropylamino-7-methoxyquinazoline] the inhibition at 1 µM was no less than 50%.

With `COc1cccc(-c2cc3cnc(NC(C)C)nc3cc2OC)c1` [Compound 201, 2-Isopropylamino-7-methoxy-6-(3-methoxyphenyl)quinazoline] the inhibition at 1 µM was no less than 50%.

With `COc1cc2nc(NC(C)C)ncc2cc1-c1cccc(OC(C)=O)c1` [Compound 202, 6-(3-Acetoxyphenyl)-2-isopropylamino-7-methoxyquinazoline] the inhibition at 1 µM was no less than 50%.

With `COc1cc2nc(NC(C)C)ncc2cc1-c1cccc(C)c1` [Compound 203, 2-Isopropylamino-7-methoxy-6-(3-methylphenyl)quinazoline] the inhibition at 1 µM was no less than 50%.

`COc1cc2nc(NC(C)C)ncc2cc1-c1cccc(F)c1` [Compound 204, 6-(3-Fluorophenyl)-2-isopropylamino-7-methoxyquinazoline] showed an inhibition at 1 µM of no less than 50%.

With `COc1cc2nc(NC(C)C)ncc2cc1-c1ccc(F)cc1C` [Compound 206, 6-(4-Fluoro-2-methylphenyl)-2-isopropylamino-7-methoxyquinazoline] the inhibition at 1 µM was no less than 50%.

`COc1cc2nc(NC(C)C)ncc2cc1-c1cccc(OC)c1F` [Compound 207, 6-(2-Fluoro-3-methoxyphenyl)-2-isopropylamino-7-methoxyquinazoline] showed an inhibition at 1 µM of no less than 50%.

`COc1cc2nc(NC(C)C)ncc2cc1-c1ccco1` [Compound 208, 6-(2-Furyl)-2-isopropylamino-7-methoxyquinazoline] showed an inhibition at 1 µM of no less than 50%.

With `COc1cc2nc(NC(C)C)ncc2cc1-c1cccc(NC(=O)c2ccc[nH]2)c1` [Compound 209, 2-Isopropylamino-7-methoxy-6-{3-[(1H-pyrrol-2-yl)carbonylamino]phenyl}quinazoline] the inhibition at 1 µM was no less than 50%.

In the case of `COc1cc2nc(NC(C)C)ncc2cc1-c1cccc(NC(=O)Nc2ccccc2)c1` [Compound 210, 2-Isopropylamino-7-methoxy-6-[3-(3-phenylureido)phenyl]quinazoline], the inhibition at 1 µM is reported as no less than 50%.

With `COc1cc2nc(NC(C)C)ncc2cc1-c1cccc(NC(=O)c2cc3ccccc3[nH]2)c1` [Compound 211, 6-{3-[(1H-indol-2-yl)carbonylamino]phenyl}-2-isopropylamino-7-methoxyquinazoline] the inhibition at 1 µM was no less than 50%.

In the case of `CNC(=O)Nc1cccc(-c2cc3cnc(NC(C)C)nc3cc2OC)c1` [Compound 212, 2-Isopropylamino-7-methoxy-6-[3-(3-methylureido)phenyl]quinazoline], the inhibition at 1 µM is reported as no less than 50%.

For `COc1cc2nc(NC(C)C)ncc2cc1-c1cccc(NC(=O)c2ccc(C(F)(F)F)cc2)c1` [Compound 213, 2-Isopropylamino-7-methoxy-6-{3-[(4-trifluoromethylphenyl)carbonylamino]phenyl}quinazoline], the inhibition at 1 µM was no less than 50%.

For `COc1cc2nc(NC(C)C)ncc2cc1-c1cccc(NC(=O)c2ccc(OC(F)(F)F)cc2)c1` [Compound 214, 2-Isopropylamino-7-methoxy-6-{3-[(4-trifluoromethoxyphenyl)carbonylamino]phenyl}quinazoline], the inhibition at 1 µM was no less than 50%.

Compound `COc1cc2nc(NC(C)C)ncc2cc1-c1cccc(NC(=O)c2ccncc2)c1` [Compound 215, 2-Isopropylamino-7-methoxy-6-{3-[(4-pyridyl)carbonylamino]phenyl}quinazoline] has an inhibition at 1 µM of no less than 50%.

Compound `COc1cc2nc(NC(C)C)ncc2cc1-c1cccc(NC(=O)c2cccc(C(F)(F)F)c2)c1` [Compound 216, 2-Isopropylamino-7-methoxy-6-{3-[(3-trifluoromethylphenyl)carbonylamino]phenyl}quinazoline] has an inhibition at 1 µM of no less than 50%.

With `COc1cc2nc(NC(C)C)ncc2cc1-c1cccc(NC(=O)c2ccccc2C(F)(F)F)c1` [Compound 217, 2-Isopropylamino-7-methoxy-6-{3-[(2-trifluoromethylphenyl)carbonylamino]phenyl}quinazoline] the inhibition at 1 µM was no less than 50%.

With `COc1cc2nc(NC(C)C)ncc2cc1-c1cccc(NC(=O)c2cccc(F)c2)c1` [Compound 219, 6-{3-[(3-Fluorophenyl)carbonylamino]phenyl}-2-isopropylamino-7-methoxyquinazoline] the inhibition at 1 µM was no less than 50%.

`COc1cc2nc(NC(C)C)ncc2cc1-c1cccc(NC(=O)C2CC2)c1` [Compound 220, 6-[3-(Cyclopropylcarbonylamino)phenyl]-2-isopropylamino-7-methoxyquinazoline] was tested, and the inhibition at 1 µM was no less than 50%.

`COc1cc2nc(NC(C)C)ncc2cc1-c1cccc(NC(=O)c2cccnc2)c1` [Compound 221, 2-Isopropylamino-7-methoxy-6-{3-[(3-pyridyl)carbonylamino]phenyl}quinazoline] showed an inhibition at 1 µM of no less than 50%.

`COc1cc2nc(NC(C)C)ncc2cc1-c1cccc(NC(=O)C2CCC2)c1` [Compound 222, 6-[3-(Cyclobutylcarbonylamino)phenyl]-2-isopropylamino-7-methoxyquinazoline] was tested, and the inhibition at 1 µM was no less than 50%.

In the case of `COc1cc2nc(NC(C)C)ncc2cc1-c1cc([N+](=O)[O-])ccc1CO` [Compound 223, 6-(2-Hydroxymethyl-5-nitrophenyl)-2-isopropylamino-7-methoxyquinazoline], the inhibition at 1 µM is reported as no less than 50%.

With `COc1cc2nc(NC(C)C)ncc2cc1-c1cc(N)ccc1CO` [Compound 224, 6-[5-Amino-2-(hydroxymethyl)phenyl]-2-isopropylamino-7-methoxyquinazoline] the inhibition at 1 µM was no less than 50%.

Compound `COc1cc2nc(NC(C)C)ncc2cc1-c1cc(NC(C)=O)ccc1CO` [Compound 225, 6-[5-Acetylamino-2-(hydroxymethyl)phenyl]-2-isopropylamino-7-methoxyquinazoline] has an inhibition at 1 µM of no less than 50%.

Compound `COc1cc2nc(NC(C)C)ncc2cc1-c1cc(NC(C)=O)ccc1C#N` [Compound 227, 6-(5-Acetylamino-2-cyanophenyl)-2-isopropylamino-7-methoxyquinazoline] has an inhibition at 1 µM of no less than 50%.

`COc1cc2nc(NC(C)C)ncc2cc1-c1cc(NC(=O)c2ccc[nH]2)ccc1CO` [Compound 228, 6-{2-Hydroxymethyl-5-[(1H-pyrrol-2-yl)carbonylamino]phenyl}-2-isopropylamino-7-methoxyquinazoline] gave an inhibition at 1 µM of no less than 50%.

`COc1cc2nc(NC(C)C)ncc2cc1-c1cc(N)ccc1C` [Compound 229, 6-(5-Amino-2-methylphenyl)-2-isopropylamino-7-methoxyquinazoline] was tested, and the inhibition at 1 µM was no less than 50%.

With `COc1cc2nc(NC(C)C)ncc2cc1-c1cc(NC(C)=O)ccc1C` [Compound 230, 6-(5-Acetylamino-2-methylphenyl)-2-isopropylamino-7-methoxyquinazoline] the inhibition at 1 µM was no less than 50%.

With `COc1cc2nc(NC(C)C)ncc2cc1-c1cc(NC(=O)c2ccnc(N3CCOCC3)c2)ccc1C` [Compound 231, 2-Isopropylamino-7-methoxy-6-{2-methyl-5-[(2-morpholinopyridin-4-yl)carbonylamino]phenyl}quinazoline] the inhibition at 1 µM was no less than 50%.
